Publication PMC3522743, “Wax Ester Synthesis is Required for Mycobacterium tuberculosis to Enter In Vitro Dormancy” (PLoS ONE, 2012)

Key:
FCR1 (Rv3391) = biological target: T1, FCR1 (Rv3391) (Mycobacterium tuberculosis, UniProt O50417)
T1 construct: gene acrA1

FCR2 (Rv1543) = FCR2 (Rv1543) (Mycobacterium tuberculosis, UniProt P9WGS1)
FCR2 (Rv1543), sequence (P9WGS1 whole entry): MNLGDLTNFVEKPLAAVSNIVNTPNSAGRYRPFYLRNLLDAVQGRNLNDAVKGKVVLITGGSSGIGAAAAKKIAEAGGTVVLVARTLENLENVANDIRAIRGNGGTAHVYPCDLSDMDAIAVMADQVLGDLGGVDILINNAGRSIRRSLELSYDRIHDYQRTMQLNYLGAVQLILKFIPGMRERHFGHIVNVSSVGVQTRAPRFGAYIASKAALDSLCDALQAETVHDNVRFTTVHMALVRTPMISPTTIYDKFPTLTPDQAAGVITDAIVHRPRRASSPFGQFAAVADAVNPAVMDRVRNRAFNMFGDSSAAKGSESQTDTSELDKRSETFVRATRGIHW

T1 sequence (O50417 entry or part of it): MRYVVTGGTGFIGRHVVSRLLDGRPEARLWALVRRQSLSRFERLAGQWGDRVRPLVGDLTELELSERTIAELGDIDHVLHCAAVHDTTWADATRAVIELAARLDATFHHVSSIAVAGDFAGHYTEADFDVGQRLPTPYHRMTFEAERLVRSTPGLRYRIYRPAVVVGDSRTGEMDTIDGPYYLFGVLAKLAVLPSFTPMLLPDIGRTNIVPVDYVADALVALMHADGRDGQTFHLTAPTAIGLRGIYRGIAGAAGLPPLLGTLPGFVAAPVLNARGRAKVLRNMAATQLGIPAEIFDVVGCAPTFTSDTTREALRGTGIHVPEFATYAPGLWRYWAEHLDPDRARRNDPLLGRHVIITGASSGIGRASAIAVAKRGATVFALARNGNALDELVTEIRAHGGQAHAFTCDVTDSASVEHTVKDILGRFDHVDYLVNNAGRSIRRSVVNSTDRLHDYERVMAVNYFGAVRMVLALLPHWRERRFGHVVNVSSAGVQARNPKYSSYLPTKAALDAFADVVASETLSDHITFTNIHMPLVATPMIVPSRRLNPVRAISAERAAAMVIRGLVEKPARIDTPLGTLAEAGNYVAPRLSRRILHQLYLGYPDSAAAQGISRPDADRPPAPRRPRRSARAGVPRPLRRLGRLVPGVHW

| SMILES | 14C product formation, TLC and scintillation counting, E. coli lysate (FCR1 (Rv3391)) | 14C product formation, TLC and scintillation counting, E. coli lysate (FCR2 (Rv1543)) |
| --- | --- | --- |
| NC(=O)C1=CN([C@@H]2O[C@H](COP(=O)(O)OP(=O)(O)OC[C@H]3O[C@@H](n4cnc5c(N)ncnc54)[C@H](OP(=O)(O)O)[C@@H]3O)[C@@H](O)[C@H]2O)C=CC1 [NADPH] | Both FCR1 and FCR2 exhibited strong preference for NADPH as a cofactor | Both FCR1 and FCR2 exhibited strong preference for NADPH as a cofactor |
| CCCCCCCC/C=C\CCCCCCCC(=O)SCCNC(=O)CCNC(=O)[C@H](O)C(C)(C)COP(=O)(O)OP(=O)(O)OC[C@H]1O[C@@H](n2cnc3c(N)ncnc32)[C@H](O)[C@@H]1OP(=O)(O)O [oleoyl-CoA] | Both of these proteins showed typical substrate saturation with oleoyl-CoA (Fig. 3C, G). | Both of these proteins showed typical substrate saturation with oleoyl-CoA (Fig. 3C, G). |
